Measured values as given in EP0297523A2, “Process for the preparation of elaiophyline and the use thereof” (HOECHST AKTIENGESELLSCHAFT, priority 1987, dated 1989).

Experiments:
[1] = tested on: Trichostrongylus colubriformis; experiment: Anthelmintic effect in artificially infected lambs (small intestine nematodes), coproscopy and necropsy; assay type: in vivo; details: up to 14 days after application
Description: (§1) Die anthelminthische Wirkung vom Elaiophylin wurde an Lämmern mit 30 - 40 kg Körpergewicht untersucht. Dazu wurden die Lämmer artifiziell mit Infektionsstadien von Labmagen- (Haemonchus contortus) und Dünndarm-(Trichostrongylus colubriformis) Nematoden infiziert. Nach Abschluß der Entwicklungszeit (Präpatenzperiode) der Nematoden erfolgte die Applikation von Elaiophylin in Dosierungen von 2,5, 5,0 und 10,0 mg/kg (p.o.) bzw. 2,5 mg/kg (subcutan).
(§2) Durch koproskopische Untersuchungen vor und bis zu 14 Tagen nach der Applikation des Elaiophylins und anschließende Sektion mit helminthologischer Aufarbeitung wurde die prozentuale Reduktion der Schaf-Nematoden ermittelt (s. Tab. 1). Tabelle 1

[2] = tested on: Haemonchus contortus; experiment: Anthelmintic effect in artificially infected lambs (abomasal nematodes), coproscopy and necropsy; assay type: in vivo; details: up to 14 days after application
Description: as §1, §2

## CC[C@@H]1[C@@H](C)O[C@@](O)([C@@H](C)[C@H](O)[C@H](C)[C@H]2OC(=O)/C=C/C=C/[C@H](C)[C@@H]([C@@H](C)[C@@H](O)[C@H](C)[C@@]3(O)C[C@@H](O[C@H]4C[C@H](O)[C@H](O)[C@H](C)O4)[C@H](CC)[C@@H](C)O3)OC(=O)/C=C/C=C/[C@@H]2C)C[C@H]1O[C@H]1C[C@H](O)[C@H](O)[C@H](C)O1 [Elaiophylin]
[1]; lambs 30 - 40 kg, 2,5 mg p.o.
  proz. Reduktion der Nematoden T. colubriformis: 28,4%
[1]; lambs 30 - 40 kg, 2,5 mg s.c.
  proz. Reduktion der Nematoden T. colubriformis: 35,1%
[1]; lambs 30 - 40 kg, 5,0 mg p.o.
  proz. Reduktion der Nematoden T. colubriformis: 73,8%
[1]; lambs 30 - 40 kg, 10,0 mg p.o.
  proz. Reduktion der Nematoden T. colubriformis: 73,8%
[2]; lambs 30 - 40 kg, 2,5 mg p.o.
  proz. Reduktion der Nematoden H. contortus: 44,6%
[2]; lambs 30 - 40 kg, 2,5 mg s.c.
  proz. Reduktion der Nematoden H. contortus: 46,5%
[2]; lambs 30 - 40 kg, 5,0 mg p.o.
  proz. Reduktion der Nematoden H. contortus: 89,3%
[2]; lambs 30 - 40 kg, 10,0 mg p.o.
  proz. Reduktion der Nematoden H. contortus: 85,0%
